Results: patent US8846704B2, “Thiopyrimidine-based compounds and uses thereof” (YM Biosciences Austraila Pty Ltd, priority 2007, dated 2014)

How the values were obtained:
Type in all cases: cell-based
BaF3 wild-type cells = assay: Cellular screening, BaF3 wild-type cells, Alamar Blue; settings: Mus musculus, 40 hr, read-out: BAF3wt IC50_nM
Description: (§1) For screening purposes, compounds were diluted in 96 well plates at a concentration of 20 μM. Plates were warmed at 37° C. for 30 minutes before the assay was performed.
(§2) The growth factor dependant myelomonocytic cell line BaF3 bearing the pTET-off plasmid (Clontech) was transfected with either pTELJAK2 or pTELJAK3, and the transfected cells were selected for growth-factor independent cell growth. The BaF3 wild-type cells were cultured in DMEM containing 10% FCS, 10% WEHI 3B conditioned medium. The BaF3 TELJAK cells ([…]) were cultured in DMEM 10% Tet-System Approved FBS (without WEHI 3B conditioned medium).
(§3) Cell suspensions were prepared by harvesting cells from culture (the cells used in this test were in late log phase growth with high viability.) Cells were diluted in the appropriate growth medium, as described above, to 1.1× final concentration (from 50,000 cell/mL to 200,000 cell/mL, depending on cell line).
(§4) Compounds to be tested were added (10 μL, 10× final concentration) to a flat bottomed 96-well plate. The cellular suspension (90 μL per well) was then added, and the plate incubated for 40 hr at 37° C., 5% CO2. Alamar Blue 10 μL per well was added and the plates returned to the incubator for a further 4-6 hours. The plates were then read at 544 nm.

BaF3 TELJAK3 cells = biological target: T1, BaF3 TELJAK3 cells (Homo sapiens, UniProt P52333); assay: Cellular screening, BaF3 TEL:JAK3 cells, Alamar Blue; settings: 40 hr, read-out: BafT_J3 IC50_nM
T1 construct: fused on or other part: TEL (ETV6) N-terminal part, coding nucleotides 1-487, serves as the oligomerising partner; It is fused through a Sal I site to the JAK3 kinase domain and expressed from pTRE2 in BaF3 cells bearing pTET-off; P41212 (Transcription factor ETV6)
T1 sequence (P52333 1-1124): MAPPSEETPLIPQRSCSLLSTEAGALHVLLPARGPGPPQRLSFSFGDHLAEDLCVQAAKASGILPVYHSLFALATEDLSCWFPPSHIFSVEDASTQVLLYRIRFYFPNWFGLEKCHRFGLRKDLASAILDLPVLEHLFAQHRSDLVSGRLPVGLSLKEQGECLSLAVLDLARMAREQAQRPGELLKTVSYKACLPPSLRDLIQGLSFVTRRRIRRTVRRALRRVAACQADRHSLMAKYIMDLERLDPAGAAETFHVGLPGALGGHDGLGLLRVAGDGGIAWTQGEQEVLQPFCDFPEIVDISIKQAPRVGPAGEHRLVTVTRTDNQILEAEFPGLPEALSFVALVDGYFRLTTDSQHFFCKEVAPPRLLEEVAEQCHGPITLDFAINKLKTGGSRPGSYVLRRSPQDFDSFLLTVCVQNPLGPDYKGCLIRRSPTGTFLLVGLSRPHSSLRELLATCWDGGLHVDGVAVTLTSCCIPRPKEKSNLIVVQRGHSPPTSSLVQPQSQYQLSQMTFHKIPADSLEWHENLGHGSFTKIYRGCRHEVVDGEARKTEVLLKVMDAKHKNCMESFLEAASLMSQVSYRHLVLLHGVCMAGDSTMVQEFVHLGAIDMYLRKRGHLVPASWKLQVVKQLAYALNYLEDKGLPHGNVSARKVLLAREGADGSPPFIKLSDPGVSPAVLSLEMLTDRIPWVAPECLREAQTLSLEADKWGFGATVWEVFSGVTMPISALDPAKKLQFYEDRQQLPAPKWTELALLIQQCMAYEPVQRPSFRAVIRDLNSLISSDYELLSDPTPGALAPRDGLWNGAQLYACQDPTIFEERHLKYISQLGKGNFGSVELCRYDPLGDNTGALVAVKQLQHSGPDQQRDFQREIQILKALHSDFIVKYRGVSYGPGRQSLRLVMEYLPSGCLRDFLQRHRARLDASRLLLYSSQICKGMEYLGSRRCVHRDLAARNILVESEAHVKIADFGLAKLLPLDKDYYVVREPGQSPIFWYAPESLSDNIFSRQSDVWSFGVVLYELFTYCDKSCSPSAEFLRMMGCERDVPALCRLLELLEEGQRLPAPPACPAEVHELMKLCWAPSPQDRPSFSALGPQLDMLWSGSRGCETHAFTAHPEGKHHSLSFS
Description: as §1
The coding region encompassing nucleotides 1-487 of TEL was amplified by PCR using the oligonucleotides STEL (5′-GGAGGATCCTGATCTCTCTCGCTGTGAGAC-3′) [SEQ ID NO 14] and 3TEL (5′-AGGC GTCGACTTCTTCTTCATGGTTCTG-3′) [SEQ ID NO 15] and U937 mRNA as a template. A […] restriction site was incorporated into the STEL primer, and a Sal I restriction site was incorporated into the 3TEL primer. The regions encompassing the kinase domain of JAK2 (nucleotides 2994-3914; JAK2F 5′-ACGC GTCGACGGTGCCTTTGAAGACCGGGAT-3′ [SEQ ID NO 16]; JAK2R 5′-ATAGTTTAGCGGCCGCTCAGAATGAAGGTCATTT-3′) [SEQ ID NO 17] and JAK3 (nucleotides 2520-3469; JAK3F 5′-GAAGTCGACTATGCCTGCCAAGACCCCACGATCTT-3′) [SEQ ID NO 18] were generated by PCR using Taq DNA polymerase (Gibco/BRL) and […] as a template. A Sal I restriction site was incorporated into the forward primer of JAK2 and JAK3, a Not I site was incorporated into the JAK2 reverse primer and a Xba I site was added to the reverse primer of JAK3.
The TEL/Jak3 fusion was prepared by ligation of the JAK3 Sal I/Not I cleaved kinase domain PCR product with the BamH I/Sal I restriction digested TEL product, followed by ligation of the ligation product into the BamH I/Not I digested pTRE2, to give the TEL/Jak3 fusion plasmid pTELJAK3.
as §2, §3, §4

CTLL2 = assay: Cellular screening, CTLL2 cells, Alamar Blue; settings: Mus musculus, CTLL-2, read-out: CTLL2 IC50_nM
Description: as §3, §4

C=CC(=O)Nc1cccc(Sc2ccnc(Nc3cccc(N4CCOCC4)c3)n2)c1 [Compound 110, N-(3-(2-(3-morpholinophenylao)pyrimidin-4-ylthio)phenyl)acrylamide]
IC50 (BaF3 wild-type cells): < 20 µM | GI50 (BaF3 TELJAK3 cells): < 1000 nM | IC50 (CTLL2): < 5000 nM

O=C(/C=C/Cl)Nc1cccc(Sc2ccnc(Nc3ccc(N4CCOCC4)cc3)n2)c1 [Compound 340, (E)-3-chloro-N-(3-(2-(4-morpholinophenylao)pyrimidin-4-ylthio)phenyl)acrylamide]
IC50 (BaF3 wild-type cells): < 5 µM | GI50 (BaF3 TELJAK3 cells): < 1000 nM | IC50 (CTLL2): < 5000 nM

C=CC(=O)Nc1ccc(Sc2nc(Nc3ccc(NS(C)(=O)=O)cc3)ncc2C)cc1 [Compound 285, N-(4-(5-methyl-2-(4-(methylsulfonamido)phenylao)pyrimidin-4-ylthio)phenyl)acrylamide]
IC50 (BaF3 wild-type cells): < 5 µM | GI50 (BaF3 TELJAK3 cells): < 1000 nM | IC50 (CTLL2): < 1000 nM

O=C(/C=C\Cl)Nc1ccc(Sc2ccnc(Nc3ccc(N4CCOCC4)cc3)n2)cc1 [Compound 346, (Z)-3-chloro-N-(4-(2-(4-morpholinophenylao)pyrimidin-4-ylthio)phenyl)acrylamide]
IC50 (BaF3 wild-type cells): < 1 µM | GI50 (BaF3 TELJAK3 cells): < 1000 nM | IC50 (CTLL2): < 20000 nM

C=CC(=O)Nc1ccc(Sc2nc(Nc3ccc(N4CCOCC4)c(OC)c3)ncc2C)cc1 [Compound 248, N-(4-(2-(3-methoxy-4-morpholinophenylao)-5-methylpyrimidin-4-ylthio)phenyl)acrylamide]
IC50 (BaF3 wild-type cells): < 5 µM | GI50 (BaF3 TELJAK3 cells): < 1000 nM | IC50 (CTLL2): < 1000 nM

C=CC(=O)Nc1ccc(Sc2nc(Nc3cccc(N4CCOCC4)c3)ncc2I)cc1 [Compound 269, N-(4-(5-iodo-2-(3-morpholinophenylao)pyrimidin-4-ylthio)phenyl)acrylamide]
GI50 (BaF3 TELJAK3 cells): < 1000 nM

CNC(=O)/C=C\C(=O)Nc1ccc(Sc2nc(Nc3ccc(N4CCOCC4)cc3)ncc2C)cc1 [Compound 389, N1-methyl-N4-(4-(5-methyl-2-(4-morpholinophenylao)pyrimidin-4-ylthio)phenyl)maleamide]
IC50 (BaF3 wild-type cells): < 20 µM | GI50 (BaF3 TELJAK3 cells): < 1000 nM | IC50 (CTLL2): < 1000 nM

C=CC(=O)Nc1ccc(Sc2nc(Nc3ccc(N4CCC(CO)CC4)cc3)ncc2C)cc1 [Compound 286, N-(4-(2-(4-(4-(hydroxymethyl)piperidin-1-yl)phenylao)-5-methylpyrimidin-4-ylthio)phenyl)acrylamide]
IC50 (BaF3 wild-type cells): > 20 µM | GI50 (BaF3 TELJAK3 cells): < 1000 nM | IC50 (CTLL2): < 1000 nM

C=CC(=O)Nc1ccc(Sc2nc(Nc3ccc(C)c(Br)c3)ncc2C)cc1 [Compound 242, N-(4-(2-(3-bromo-4-methylphenylao)-5-methylpyrimidin-4-ylthio)phenyl)acrylamide]
IC50 (BaF3 wild-type cells): > 20 µM | GI50 (BaF3 TELJAK3 cells): < 20000 nM | IC50 (CTLL2): > 20000 nM

Nc1ccc(Sc2nc(Nc3cccc(N4CCOCC4)c3)ncc2I)cc1 [Compound 264, 4-(4-aophenylthio)-5-iodo-N-(3-morpholinophenyl)pyrimidin-2-ae]
IC50 (BaF3 wild-type cells): < 5 µM | GI50 (BaF3 TELJAK3 cells): < 5000 nM | IC50 (CTLL2): < 5000 nM

Nc1ccc(Sc2ccnc(Nc3ccc(N4CCOCC4)cc3)n2)cc1 [Compound 27, 4-(4-aophenylthio)-N-(4-morpholinophenyl)pyrimidin-2-ae]
IC50 (BaF3 wild-type cells): < 20 µM | GI50 (BaF3 TELJAK3 cells): < 20000 nM | IC50 (CTLL2): < 5000 nM

N#Cc1nnn(Cc2ccc(Sc3ccnc(Nc4ccc(N5CCOCC5)cc4)n3)cc2)n1 [Compound 156, 2-(4-(2-(4-morpholinophenylao)pyrimidin-4-ylthio)benzyl)-2H-tetrazole-5-carbonitrile]
IC50 (BaF3 wild-type cells): < 5 µM | GI50 (BaF3 TELJAK3 cells): < 5000 nM | IC50 (CTLL2): < 5000 nM

C=CC(=O)Nc1ccc(Sc2ccnc(Nc3cccc(CO)c3)n2)cc1 [Compound 278, N-(4-(2-(3-(hydroxymethyl)phenylao)pyrimidin-4-ylthio)phenyl)acrylamide]
GI50 (BaF3 TELJAK3 cells): < 1000 nM

C=CC(=O)Nc1ccc(Sc2nc(Nc3cccc(N4CCN(C)CC4)c3)ncc2C)cc1 [Compound 243, N-(4-(5-methyl-2-(3-(4-methylpiperazin-1-yl)phenylao)pyrimidin-4-ylthio)phenyl)acrylamide]
IC50 (BaF3 wild-type cells): < 5 µM | GI50 (BaF3 TELJAK3 cells): < 1000 nM | IC50 (CTLL2): < 1000 nM

COc1ccc(Nc2ncc(C)c(Sc3ccc(N)cc3)n2)cc1OC [Compound 240, 4-(4-aophenylthio)-N-(3,4-dimethoxyphenyl)-5-methylpyrimidin-2-ae]
IC50 (BaF3 wild-type cells): < 1 µM | GI50 (BaF3 TELJAK3 cells): < 5000 nM | IC50 (CTLL2): < 5000 nM

C=CC(=O)Nc1ccc(Sc2ccnc(Nc3cccc(N4CCOCC4)c3)n2)cc1 [Compound 77, N-(4-(2-(3-morpholinophenylao)pyrimidin-4-ylthio)phenyl)acrylamide]
IC50 (BaF3 wild-type cells): < 5 µM | GI50 (BaF3 TELJAK3 cells): < 1000 nM | IC50 (CTLL2): < 1000 nM

C=CC(=O)Nc1ccc(Sc2nc(Nc3cccc(CO)c3)ncc2C)cc1 [Compound 280, N-(4-(2-(3-(hydroxymethyl)phenylao)-5-methylpyrimidin-4-ylthio)phenyl)acrylamide]
IC50 (BaF3 wild-type cells): < 20 µM | GI50 (BaF3 TELJAK3 cells): < 1000 nM | IC50 (CTLL2): < 1000 nM

C=CC(=O)Nc1ccc(Sc2ccnc(Nc3ccc(O)cc3)n2)cc1 [Compound 276, N-(4-(2-(4-hydroxyphenylao)pyrimidin-4-ylthio)phenyl)acrylamide]
IC50 (BaF3 wild-type cells): < 20 µM | GI50 (BaF3 TELJAK3 cells): < 1000 nM | IC50 (CTLL2): < 1000 nM

C=CC(=O)Nc1ccc(Sc2ccnc(Nc3ccc(N4CCN(C)CC4)cc3)n2)cc1 [Compound 238, N-(4-(2-(4-(4-methylpiperazin-1-yl)phenylao)pyrimidin-4-ylthio)phenyl)acrylamide]
GI50 (BaF3 TELJAK3 cells): < 1000 nM

C=CC(=O)Nc1ccc(Sc2nc(Nc3cccc(OC)c3)ncc2C)cc1 [Compound 235, N-(4-(2-(3-methoxyphenylao)-5-methylpyrimidin-4-ylthio)phenyl)acrylamide]
GI50 (BaF3 TELJAK3 cells): < 1000 nM

CC#CC(=O)Nc1cccc(Sc2ccnc(Nc3cccc(N4CCOCC4)c3)n2)c1 [Compound 232, N-(3-(2-(3-morpholinophenylao)pyrimidin-4-ylthio)phenyl)but-2-ynamide]
GI50 (BaF3 TELJAK3 cells): < 5000 nM

C=CC(=O)Nc1ccc(Sc2nc(Nc3ccc(C4CCN(C)CC4)cc3)ncc2C)cc1 [Compound 246, N-(4-(5-methyl-2-(4-(1-methylpiperidin-4-yl)phenylao)pyrimidin-4-ylthio)phenyl)acrylamide]
GI50 (BaF3 TELJAK3 cells): < 1000 nM
